Results: patent US10067145B2, “Method for removing genomically unstable IPS cells and synthetic peptide used therefor” (TOAGOSEI CO., LTD., priority 2013, dated 2018)
No end group written: not given here.

Legend:
[1] = tested on: human iPS cell strain 201B7; test: Evaluation of calreticulin expression inducing activity of synthetic peptides (immunofluorescence antibody assay), genomically stable iPS cells; assay type: cell-based; details: peptide 10 μM in mTeSR 1 medium, 5 days, medium replaced every day; anti-calreticulin antibody, confocal laser microscope
Text: (§1) In the following Examples, iPS cells were used as an example of pluripotent stem cells. Specifically, cells used for tests were a genomically stable (specifically without a chromosome aberration) human iPS cell strain (clone: 201B7, hereinafter also merely referred to as 201B7) and a human iPS cell strain (clone: 201B2 hereinafter also merely referred to as 201B2) containing genomically unstable (specifically, chromosome 12 is triploid (trisomy)) cells. Both 201B7 and 201B2 are clones of iPS cells established from the same human fibroblasts (source: Takahashi K et al., Cell, 131, 861-872 (2007)). The iPS cells were provided by the Center for iPS Cell Research and Application, Kyoto University. […]
(§2) A primary antibody diluted solution prepared by adjusting a primary antibody, an anti-calreticulin monoclonal [FMC75] antibody (murine, available from Abeam, Cat No. ab22683, Lot No. GR56669-4), to a final concentration of 4×10^−3 mg/mL in 1% BSA/PBS (−) (PBS (−) containing 1% BSA) was added to the culture vessel of the iPS cells, and the mixture was left to stand overnight at 4° C. or 2 hours at room temperature. […] Thereafter, mounting was carried out with a DAPI (4′,6-diamidino-2-phenylindole)-containing mounting medium (available from Life Technologies) and a cover glass and fluorescence was observed under a confocal laser microscope. […]

[2] = tested on: human iPS cell strain 201B2 (chromosome 12 trisomy); test: Evaluation of calreticulin expression inducing activity of synthetic peptides (immunofluorescence antibody assay), genomically unstable iPS cells; assay type: cell-based; details: peptide 10 μM in mTeSR 1 medium, 5 days, medium replaced every day; anti-calreticulin antibody, confocal laser microscope
Text: as §1, §2

Sequence: KKRTLRKNDRKKR GG CRAKAGDPC (KKRTLRKNDRKKRGGCRAKAGDPC-NH2; cysteine pairing not given here) [sample 1, linear synthetic calreticulin expression inducing peptide, 24 residues]
- expression level of calreticulin in 201B7 (fluorescence of the label detecting calreticulin) compared to cells without addition of peptides [1]: almost no increase
- expression level of calreticulin in 201B2 (fluorescence of the label detecting calreticulin) compared to cells without addition of peptides [2]: significantly increased
